Reference: paper PMC9826068 (Chemistry (Weinheim an Der Bergstrasse, Germany), 2022)
Converted amounts (≈) assume the structure as drawn.

Assays:
Aqueous solubility = type: physicochemical; conditions: aqueous medium at pH 7.4, pH 7.4, aqueous buffer
[1] = Distribution coefficient 1‐octanol / aqueous phosphate buffer; type: physicochemical; conditions: pH 7.4

| SMILES | solubility (Aqueous solubility) | logD [1] |
| --- | --- | --- |
| O=C(NCc1cccc(CNC(=O)c2cc3ccccc3o2)c1)c1cc2ccccc2o1 [compound 28] | 3 µM (≈ 1.27 µg/mL) |  |
| c1cc(CNCc2cc3ccccc3o2)cc(CNCc2cc3ccccc3o2)c1 [compound 29] | 28 µM (≈ 11.1 µg/mL) | 4.6 |
